In patent publication US9167815B2, “Agricultural or horticultural fungicide composition and method for controlling plant pathogen” (ISHIHARA SANGYO KAISHA, LTD., priority 2011, dated 2015):

Columns and labels:
Format in all cases: cell-based
Pythium graminicola = assay: Inhibition test of mycelial growth against the genus Pythium (PSA plate); conditions: compound alone, 20° C., 3 days
Experimental: A mycangium (diameter: 4 mm) obtained by precultivation was transplanted on PSA containing a chemical in a prescribed concentration and then cultured at room temperature of 20° C. for 3 days, followed by measuring a diameter of the grown mycangium to determine an inhibition rate of mycelial growth (%). In addition, an expected value of the inhibition rate was calculated according to the following Colby's formula and listed in parentheses of Tables 1 to 3. […] Colby's formula: x+y−xy/100 x: Inhibition rate of growth of the component (a) alone (%) y: Inhibition rate of growth of the component (b) alone (%)

Rhizoctonia solani = assay: Inhibition test of mycelial growth against the genus Rhizoctonia (PSA plate); conditions: compound alone, 20° C., 4 days
Experimental: A mycangium (diameter: 4 mm) obtained by precultivation was transplanted on PSA containing a chemical in a prescribed concentration and then cultured at room temperature of 20° C. for 4 days, followed by measuring a diameter of the grown mycangium to determine an inhibition rate of mycelial growth (%). In addition, an expected value of the inhibition rate calculated according to the Colby's formula in the same manner as that in the foregoing Test Example 1 was listed in parentheses of Tables 4 to 6.

Botrytis cinerea = assay: Inhibition test of mycelial growth against gray mold (YS liquid medium, 96-well microplate); conditions: compound alone, 25° C., three days
Experimental: On a YS (yeast extract+sucrose) liquid culture medium, a certain amount of a chemical solution prepared such that a final concentration of each chemical became a concentration at which the test was carried out was mixed. 100 μL of each of the chemical-containing YS liquid culture media was aliquoted into each well of a 96-well microplate. Thereafter, 50 μL of a spore suspension of gray mold whose spore concentration had been prepared as shown in the following tables was aliquoted into each well and cultivated at 25° C. under a light-dark cycle (light period: 16 hours, dark period: 8 hours). Three days after the cultivation, an area of the well bottom covered by the propagated gray mold hyphae was microscopically examined to determine an inhibition rate of growth (%). The inhibition rate of growth was visually examined while defining an area covered by hyphae in a non-treated well as 100. For the non-treatment, a chemical-free YS liquid culture medium was used. In addition, an expected value of the inhibition rate calculated according to the Colby's formula in the same manner as that in the foregoing Test Example 1 was listed in parentheses of Tables 7 to 13.

[1] = Pythium graminicola, 72 h, read-out: Inhibition Rate of Mycelial Growth against Pythium graminicola (%)
[2] = Pythium graminicola, 72 h, 10 ppm, read-out: Inhibition Rate of Mycelial Growth against Pythium graminicola (%)
[3] = Pythium graminicola, 72 h, 100 ppm, read-out: Inhibition Rate of Mycelial Growth against Pythium graminicola (%)
[4] = Rhizoctonia solani, 96 h, 0.1 ppm, read-out: Inhibition Rate of Mycelial Growth against Rhizoctonia solani (%)
[5] = Rhizoctonia solani, 96 h, 1 ppm, read-out: Inhibition Rate of Mycelial Growth against Rhizoctonia solani (%)
[6] = Rhizoctonia solani, 96 h, 10 ppm, read-out: Inhibition Rate of Mycelial Growth against Rhizoctonia solani (%)
[7] = Botrytis cinerea, 72 h, read-out: Inhibition Rate of Mycelial Growth against Botrytis cinerea (%)
[8] = Botrytis cinerea, 72 h, 0.78 ppm, read-out: Inhibition Rate of Mycelial Growth against Botrytis cinerea (%)
[9] = Botrytis cinerea, 72 h, 1.56 ppm, read-out: Inhibition Rate of Mycelial Growth against Botrytis cinerea (%)

SMILES: COC(=O)N(OC)c1ccccc1COc1ccn(-c2ccc(Cl)cc2)n1 [pyraclostrobin]
- inhibition at 1 ppm (Pythium graminicola; [1]): 83%
- inhibition at 10 ppm (Pythium graminicola; [2]): 100%
- inhibition at 100 ppm (Pythium graminicola; [3]): 100%
- inhibition at 0.1 ppm (Rhizoctonia solani; [4]): 26%
- inhibition at 1 ppm (Rhizoctonia solani; [5]): 55%
- inhibition at 10 ppm (Rhizoctonia solani; [6]): 67%
- inhibition at 0.39 ppm (Botrytis cinerea; [7]): 0%
- inhibition at 0.78 ppm (Botrytis cinerea; [8]): 1%
- inhibition at 1.56 ppm (Botrytis cinerea; [9]): 5%

SMILES: CO/C=C(/C(=O)OC)c1ccccc1Oc1cc(Oc2ccccc2C#N)ncn1 [azoxystrobin]
- Inhibition Rate of Mycelial Growth against Pythium graminicola (%) (Pythium graminicola; 10 ppm): 89%
- Inhibition Rate of Mycelial Growth against Pythium graminicola (%) (Pythium graminicola; 100 ppm): 100%
- Inhibition Rate of Mycelial Growth against Rhizoctonia solani (%) (Rhizoctonia solani; 0.1 ppm): 4%
- Inhibition Rate of Mycelial Growth against Rhizoctonia solani (%) (Rhizoctonia solani; 1 ppm): 27%
- Inhibition Rate of Mycelial Growth against Rhizoctonia solani (%) (Rhizoctonia solani; 10 ppm): 41%
- Inhibition Rate of Mycelial Growth against Botrytis cinerea (%) (Botrytis cinerea; 3.13 ppm): 0%
- Inhibition Rate of Mycelial Growth against Botrytis cinerea (%) (Botrytis cinerea; 6.25 ppm): 0%
- Inhibition Rate of Mycelial Growth against Botrytis cinerea (%) (Botrytis cinerea; 12.5 ppm): 1%

SMILES: CON=C(C(=O)OC)c1ccccc1CON=C(C)c1cccc(C(F)(F)F)c1 [trifloxystrobin]
- inhibition at 0.39 ppm (Botrytis cinerea; [7]): 0%
- inhibition at 0.78 ppm (Botrytis cinerea; [8]): 0%
- inhibition at 1.56 ppm (Botrytis cinerea; [9]): 0%

SMILES: CO/C=C(/C(=O)OC)c1ccccc1COc1cccc(C(F)(F)F)n1 [picoxystrobin]
- Inhibition Rate of Mycelial Growth against Botrytis cinerea (%) (Botrytis cinerea; 6.25 ppm): 1%
- Inhibition Rate of Mycelial Growth against Botrytis cinerea (%) (Botrytis cinerea; 12.5 ppm): 2%
- Inhibition Rate of Mycelial Growth against Botrytis cinerea (%) (Botrytis cinerea; 25 ppm): 3%

SMILES: CNC(=O)/C(=N/OC)c1ccccc1Oc1ccccc1 [metominostrobin]
- inhibition at 25 ppm (Botrytis cinerea; Botrytis cinerea, 72 h, 25 ppm, read-out: Inhibition Rate of Mycelial Growth against Botrytis cinerea (%)): 0%
- inhibition at 50 ppm (Botrytis cinerea; Botrytis cinerea, 72 h, 50 ppm, read-out: Inhibition Rate of Mycelial Growth against Botrytis cinerea (%)): 1%
- inhibition at 100 ppm (Botrytis cinerea; Botrytis cinerea, 72 h, 100 ppm, read-out: Inhibition Rate of Mycelial Growth against Botrytis cinerea (%)): 3%

SMILES: CO/N=C(/C(=O)OC)c1ccccc1COc1ccccc1C [kresoxim-methyl]
- inhibition at 1 ppm (Pythium graminicola; [1]): 56%
- inhibition at 10 ppm (Pythium graminicola; [2]): 73%
- inhibition at 100 ppm (Pythium graminicola; [3]): 62%
- inhibition at 0.1 ppm (Rhizoctonia solani; [4]): 30%
- inhibition at 1 ppm (Rhizoctonia solani; [5]): 39%
- inhibition at 10 ppm (Rhizoctonia solani; [6]): 42%
- inhibition at 3.13 ppm (Botrytis cinerea; Botrytis cinerea, 72 h, 3.13 ppm, read-out: Inhibition Rate of Mycelial Growth against Botrytis cinerea (%)): 0%
- inhibition at 6.25 ppm (Botrytis cinerea; Botrytis cinerea, 72 h, 6.25 ppm, read-out: Inhibition Rate of Mycelial Growth against Botrytis cinerea (%)): 1%
- inhibition at 12.5 ppm (Botrytis cinerea; Botrytis cinerea, 72 h, 12.5 ppm, read-out: Inhibition Rate of Mycelial Growth against Botrytis cinerea (%)): 1%

SMILES: O=[N+]([O-])c1cc(C(F)(F)F)c(Cl)c([N+](=O)[O-])c1Nc1ncc(C(F)(F)F)cc1Cl [fluazinam, 3-chloro-N-(3-chloro-5-trifluoromethyl-2-pyridyl)-α,α,α-trifluoro-2,6-dinitro-p-toluidine]
- inhibition at 0.1 ppm (Pythium graminicola; Pythium graminicola, 72 h, 0.1 ppm, read-out: Inhibition Rate of Mycelial Growth against Pythium graminicola (%)): 32%
- inhibition at 1 ppm (Pythium graminicola; [1]): 48%
- inhibition at 10 ppm (Pythium graminicola; [2]): 60%
- inhibition at 100 ppm (Pythium graminicola; [3]): 66%
- inhibition at 0.1 ppm (Rhizoctonia solani; [4]): 70%
- inhibition at 1 ppm (Rhizoctonia solani; [5]): 77%
- inhibition at 10 ppm (Rhizoctonia solani; [6]): 85%
- inhibition at 100 ppm (Rhizoctonia solani; Rhizoctonia solani, 96 h, 100 ppm, read-out: Inhibition Rate of Mycelial Growth against Rhizoctonia solani (%)): 87%
- inhibition at 0.04 ppm (Botrytis cinerea; Botrytis cinerea, 72 h, 0.04 ppm, read-out: Inhibition Rate of Mycelial Growth against Botrytis cinerea (%)): 0%
- inhibition at 0.08 ppm (Botrytis cinerea; Botrytis cinerea, 72 h, 0.08 ppm, read-out: Inhibition Rate of Mycelial Growth against Botrytis cinerea (%)): 0%
- inhibition at 0.16 ppm (Botrytis cinerea; Botrytis cinerea, 72 h, 0.16 ppm, read-out: Inhibition Rate of Mycelial Growth against Botrytis cinerea (%)): 80%

SMILES: CNC(=O)/C(=N/OC)c1ccccc1COc1cc(C)ccc1C [dimoxystrobin]
- Inhibition Rate of Mycelial Growth against Botrytis cinerea (%) (Botrytis cinerea; 0.78 ppm): 0%
- Inhibition Rate of Mycelial Growth against Botrytis cinerea (%) (Botrytis cinerea; 1.56 ppm): 0%
- Inhibition Rate of Mycelial Growth against Botrytis cinerea (%) (Botrytis cinerea; 3.13 ppm): 0%
